Source: US20140096445A1, “METHOD OF CULTIVATION IN WATER DEFICIT CONDITIONS” (SYNGENTA PARTICIPATIONS AG, priority 2011, published 2014)
Marks after values point to notes of the source that are not given here.

What was measured:
Format in all cases: in vivo
soybean [1] = assay: Lateral-move sprinkler irrigation field study on soybean, Examples 29-30; details: for % IWUE Increase over Untreated / % Seed Mass Increase over Untreated / % Yield Increase over Untreated / IWUE (water productivity) / Seed Mass / Yield: foliar 150 gai/ha, average of 60% & 100% irrigated
corn [2] = assay: Subsurface drip irrigation (SDI) chemigation field study, limited (deficit) vs fully irrigated, Examples 1-2; details: 261 gai/ha, 50% irrigated deficit
corn [3] = assay: Greenhouse subsurface drip irrigation trial, deficit irrigated, Examples 4-8; details: for % Yield Increase by Product over Untr./50% Irr. / Yield: SDI chemigated at V3/V4, 50% irrigated deficit, Azoxystrobin 261, PPZ 126, TXP 250, PBZ 12.5, TMX 70 gai/ha; for Yield compared with the control, in words: water stress regime (50% irrigated), SDI
Experimental: A greenhouse subsurface drip irrigation trial was conducted on corn to evaluate treatment effects on yield in fully irrigated vs. deficit irrigated conditions. In this experiment, standardized growth conditions were applied across all corn treatments including: soil-water availability, soil texture and composition, soil chemical and physical properties, meteorological and environmental parameters, and plant nutrition in a greenhouse. No indication of plant disease or pest damage was observed over the course of the study and no pest management program was necessary. A homogeneous sand-organic matter soil mixture (0.18% organic matter) was used as the growth medium in 55-gal containers. These containers were used as a weighing lysimeter, where daily changes in system weight were used to calculate plant transpiration. Four corn plants were grown in each 55-gal container. Three 55-gal containers (12 plants total) made up each treatment. All irrigation and chemical treatments were applied via sub-surface irrigation. Chemical treatments consisted of: azoxystrobin (Quadris), paclobutrazol (Trimmit), trinexapac-ethyl (Moddus), and propiconazole (Tilt) at maximum labeled rates.
Corn plants were grown from seed and transplanted in the 55-gal drums approximately 14 days after planting. Uniform adequate irrigation was applied up to growth stage V3/V4 to ensure plant establishment. Chemical treatment applications were applied at growth stage V3/V4 via sub-surface chemigation. At stage V3/V4, irrigation was decreased to replicate deficit water conditions across all treatments for the remainder of the study period. Irrigation was managed daily to maintain 50% plant-available water. Visual signs of abiotic plant stress were observed approximately 30 days after chemical application. All corn plants were grown to yield and cobs were harvested when kernels were uniformly dry (15% moisture content). Root architecture, specifically relative number of fine roots, was measured at within 2 weeks of harvest using a digital imaging technique. Fine roots are related to water uptake productivity, which is directly tied to the ability of the plant to access soil-water under stress.

corn [4] = assay: Lateral-move sprinkler irrigation field study, 113 day maturity corn hybrid, Examples 11-12; details: 261 gai/ha, 60% irrigated deficit
corn [5] = assay: SDI chemigation field study under dryland/rainfed conditions, Examples 15-16; details: 261 gai/ha, 0% irrigated rainfed/dryland
soybean [6] = assay: Sprinkler irrigation field study on soybean yield and WUE, Table 14 (treatments 31-32)
corn [7] = assay: SDI split plot field study, 115 day maturity corn hybrid, deficit vs fully irrigated, Example 3; details: 261 gai/ha, 50% irrigated deficit
[8] = Azoxy 150 gai/ha foliar, 2 applications, alone or + Acibenzolar-S-methyl 10 gai/ha, 60% irrigated deficit

## CO/C=C(/C(=O)OC)c1ccccc1Oc1cc(Oc2ccccc2C#N)ncn1 [Azoxystrobin, azoxystrobin]
Soybean [1]; all Quadris treatments
  Seed mass, statistical statement: Statistically significant difference in seed mass
Soybean [1]; one application
  % IWUE Increase over Untreated: +2% over
  % Seed Mass Increase over Untreated: +3% over
  % Yield Increase over Untreated: +2% over
  IWUE (water productivity): 129 lbs/acre-inch
  Seed Mass: 148a mg
  Yield: 48.4 Bu./acre
Soybean [1]; soybean, sprinkler irrigation
  Water productivity, in words: increase in water productivity
Soybean [1]; two applications
  % IWUE Increase over Untreated: +6% over
  % Seed Mass Increase over Untreated: +6% over
  % Yield Increase over Untreated: +5% over
  IWUE (water productivity): 133 lbs/acre-inch
  Seed Mass: 151a mg
  Yield: 49.7 Bu./acre
Corn [2]; SDI chemigated twice (V8 & V8+14da.)
  Yield: 217 Bu./acre
Corn [2]; SDI chemigated
  Azoxystrobin % IWUE Increase over Untr./50% Irr.: +40% incr.
  Azoxystrobin % IWUE Increase over Untr./100% irr.: +114% incr.
  Azoxystrobin % Yield Increase over Untr./50% Irr.: +11% incr.
  Azoxystrobin % Yield Increase over Untr./100% irr.: +2.4% incr.
  IWUE (irrigation water use efficiency): 22.9 Bu./inch
Corn [2]; SDI chemigated, listed as Quadris
  Azoxystrobin % IWUE Increase over Untr./100% irr.: 114%
Corn [2]; foliar applied twice (V8 & V8+14da.)
  Yield: 211 Bu./acre
Corn [2]; foliar applied
  Azoxystrobin % IWUE Increase over Untr./50% Irr.: +29% incr.
  Azoxystrobin % IWUE Increase over Untr./100% irr.: +97% incr.
  Azoxystrobin % Yield Increase over Untr./50% Irr.: +11% incr.
  Azoxystrobin % Yield Increase over Untr./100% irr.: +0% incr. over
  IWUE (irrigation water use efficiency): 21.1 Bu./inch
Corn [3]
  % Yield Increase by Product over Untr./50% Irr.: +12.5% Incr. over Untr./50% Irr.
  Yield: 2077† Kg/Ha
  Yield compared with the control, in words: statistically higher than the control
Corn [4]; chemigated
  Azoxystrobin % IWUE Increase over Untr./60% irr.: +11% over
  Azoxystrobin % Yield Increase over Untr./60% irr.: +5% over
  IWUE (water productivity): 515 lbs/acre inch
Corn [4]; foliar applied (V6 & R1)
  Yield: 239 Bu./acre
Corn [4]; foliar applied
  Azoxystrobin % IWUE Increase over Untr./60% irr.: +16% over
  Azoxystrobin % Yield Increase over Untr./60% irr.: +7% over
  IWUE (water productivity): 540 lbs/acre inch
Corn [4]; sprinkler chemigated (V6 & R1)
  Yield: 236 Bu./acre
Corn [5]; SDI chemigated (V6 & R1)
  Yield: 166.2 Bu./acre
Corn [5]; SDI chemigated
  Azoxystrobin % CWUE Increase over Untr./0% irr.: +142% incr over
  Azoxystrobin % Yield Increase over Untr./0% irr.: +9.6% incr over
  CWUE (crop water use efficiency): 1.125 Bu./inch
Corn [5]; foliar applied (V6 & R1)
  Yield: 161.8 Bu./acre
Corn [5]; foliar applied
  Azoxystrobin % CWUE Increase over Untr./0% irr.: +108% incr over
  Azoxystrobin % Yield Increase over Untr./0% irr.: +6.7% incr over
  CWUE (crop water use efficiency): 0.965 Bu./inch
Soybean [6]; [8]
  % WUE Increase over the 100% irrigated Control: 11% Increase
  Treatment % Yield Increase over 60% Untreated: +6% Incr.
  Treatment % Yield Increase over 100% Untreated: +11% Incr.
  WUE (water productivity): 4.1 bushels/acre-inch
  Yield: 72 Bu./acre
Soybean [6]; Azoxystrobin: foliar (2 applications) at 60% & 100% irrigated
  Yield compared with the untreated, in words: significant differences in yield
Soybean [6]; water deficit regime
  WUE differences, in words: Good WUE differences
Corn [7]; foliar twice (V8 & V8+14da.)
  Yield: 250 Bu./acre
Corn [7]; foliar
  Azoxystrobin % IWUE Increase over Untr./50% Irr.: +3% incr. over
  Azoxystrobin % IWUE Increase over Untr./100% Irr.: +7% incr. over
  Azoxystrobin % Yield Increase over Untr./50% Irr.: +3% incr. over
  Azoxystrobin % Yield Increase over Untr./100% Irr.: +0% incr. over
  IWUE (water productivity): 494 lbs./acre in.

## CCOC(=O)C1CC(=O)C(=C(O)C2CC2)C(=O)C1 (centres unmarked) [TXP, trinexapac-ethyl]
Corn [3]
  % Yield Increase by Product over Untr./50% Irr.: +15.6% Incr. over Untr./50% Irr.
  Yield: 2133† Kg/Ha
  Yield compared with the control, in words: statistically higher than the control
